Structures can show the parent of a compound that is named as a salt. Where two headings read alike, the source gives them in different places. Blank lines part the entries; values can stand above or below the compound they belong to.
Tests used:
human 5-HT6 receptor [1] = biological target: T1, human 5-HT6 receptor (Homo sapiens, UniProt P50406); assay: 5-HT6 intrinsic activity assay (inhibition of 5-HT induced increase in cAMP); type: cell-based; details: read-out: Antagonist potency at the h5-HT6 receptor, IC50,corr
T1 construct: expressed in transfected cells; host or cells: HEK293 (G-418 selected), membrane preparation
Procedure: (b) 5-HT6 Intrinsic Activity Assay
Briefly, HEK293/5-HT6 cells were seeded in polylysine coated 96-well plates at a density of 25,000/well and grown in DMEM (Dulbecco's Modified Eagle Medium) (without phenol-red) containing 5% dialyzed Foetal Bovine Serum for 48 h at 37° C. in a 5% CO2 incubator. The medium was then aspirated and replaced by 0.1 ml assay medium (Hanks Balance Salt Solution containing 20 mM HEPES, 1.5 mM isobutylmethylxanthine and 1 mg/ml bovine serum albumin). After addition of test substances, 50 μl dissolved in assay medium, the cells were incubated for 10 min at +37° C. in a 5% CO2 incubator. The medium was again aspirated and the cAMP content was determined using a radioactive cAMP kit (Amersham Pharmacia Biotech, BIOTRAK RPA559).

human 5-HT6 receptor [2] = biological target: T1, human 5-HT6 receptor; assay: 5-HT6 receptor binding assay ([3H]-LSD, SPA, membranes of transfected HEK293 cells)

T1 sequence (P50406 whole entry): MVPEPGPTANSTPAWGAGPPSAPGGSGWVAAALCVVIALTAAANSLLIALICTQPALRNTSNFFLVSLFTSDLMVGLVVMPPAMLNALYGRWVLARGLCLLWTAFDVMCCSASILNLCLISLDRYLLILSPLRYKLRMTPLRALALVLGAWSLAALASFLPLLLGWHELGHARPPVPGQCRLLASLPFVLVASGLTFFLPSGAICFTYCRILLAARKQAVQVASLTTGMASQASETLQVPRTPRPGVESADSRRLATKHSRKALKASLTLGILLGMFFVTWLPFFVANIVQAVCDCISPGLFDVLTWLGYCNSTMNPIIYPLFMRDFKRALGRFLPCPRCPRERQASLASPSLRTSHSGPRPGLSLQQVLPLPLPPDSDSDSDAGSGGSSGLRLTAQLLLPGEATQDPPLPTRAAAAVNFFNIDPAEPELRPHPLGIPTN

IC50 (human 5-HT6 receptor [1]): 28 nM
SMILES: O=S(=O)(c1ccccc1)n1cc2c3c(cccc31)CN(Cc1ncc[nH]1)C2 [Example 3, 4-(1H-Imidazol-2-ylmethyl)-1-(phenylsulfonyl)-1,3,4,5-tetrahydropyrrolo[4,3,2-de]isoquinoline bis(trifluoroacetate)]

Ki (human 5-HT6 receptor [2]; read-out: Binding affinity (Ki) at the h5-HT6 receptor): 21 nM
SMILES: CCN1Cc2cccc3c2c(cn3S(=O)(=O)c2ccccc2)C1 [Example 5, 4-Ethyl-1-(phenylsulfonyl)-1,3,4,5-tetrahydropyrrolo[4,3,2-de] isoquinoline trifluoroacetate]

Hill coefficient (human 5-HT6 receptor [2]; inter assay, over three experiments): 0.94 (SD 0.09)
SMILES: NCCc1c[nH]c2ccc(O)cc12 [Example 5-HT, 5-hydroxytryptamine, reference compound]

IC50 (human 5-HT6 receptor [1]): 8 nM
SMILES: O=S(=O)(c1ccccc1)n1cc2c3c(cccc31)CNCC2 [Example 15, 1-(Phenylsulfonyl)-3,4,5,6-tetrahydro-1H-azepino[5,4,3-cd]indole]

SMILES: CN1CCc2cccc3c2c(cn3S(=O)(=O)c2ccccc2)C1 [Example 13, 4-Methyl-1-(phenylsulfonyl)-3,4,5,6-tetrahydro-1H-azepino[3,4,5-cd]indole hydrochloride]
Ki (human 5-HT6 receptor [2]): 6 nM
